# Where “and” joins values, the source holds several entries; their conditions need not be identical. Equal values may be shown once. Read-outs that look alike come from different tables or passages of the source.
# How the values were obtained:
# H. influenzae = assay: MIC and MBC:MIC ratio, recent ocular isolates; type: cell-based; settings: H. influenzae (N = 40); for MIC50 / MIC90: Haemophilus influenzae
# Source text: (§1) The success of in vivo antimicrobial action depends to a large extent on the host's defense mechanisms, which ultimately sequester and kill the microorganisms that have been reduced by the bacteriostatic/bactericidal action of the antibacterial agent. Thus, it is also of interest to profile the bactericidal activity of antimicrobial agents. The assessment of in vitro bactericidal activity can be accomplished in multiple ways, for example, the time-kill method or the determination of the minimum bactericidal concentration (MBC). […] Bactericidal agents are characterized by low MBC:MIC ratios.
# S. epidermidis = assay: MIC and MBC:MIC ratio, recent ocular isolates; type: cell-based; settings: S. epidermidis (N = 15); for MIC50 / MIC90: Staphylococcus epidermidis
# Source text: as §1
# S. aureus = assay: MIC and MBC:MIC ratio, recent ocular isolates; type: cell-based; settings: S. aureus (N = 30); for MIC50 / MIC90: Staphylococcus aureus
# [1] = target: T1, S. pneumoniae topoisomerase IV (Streptococcus pneumoniae serotype 4, UniProt P72525+Q59961); type: biochemical; settings: S. pneumoniae enzymes; concentration that produces 25% linearization of the DNA
# T1 sequence (P72525 1-823): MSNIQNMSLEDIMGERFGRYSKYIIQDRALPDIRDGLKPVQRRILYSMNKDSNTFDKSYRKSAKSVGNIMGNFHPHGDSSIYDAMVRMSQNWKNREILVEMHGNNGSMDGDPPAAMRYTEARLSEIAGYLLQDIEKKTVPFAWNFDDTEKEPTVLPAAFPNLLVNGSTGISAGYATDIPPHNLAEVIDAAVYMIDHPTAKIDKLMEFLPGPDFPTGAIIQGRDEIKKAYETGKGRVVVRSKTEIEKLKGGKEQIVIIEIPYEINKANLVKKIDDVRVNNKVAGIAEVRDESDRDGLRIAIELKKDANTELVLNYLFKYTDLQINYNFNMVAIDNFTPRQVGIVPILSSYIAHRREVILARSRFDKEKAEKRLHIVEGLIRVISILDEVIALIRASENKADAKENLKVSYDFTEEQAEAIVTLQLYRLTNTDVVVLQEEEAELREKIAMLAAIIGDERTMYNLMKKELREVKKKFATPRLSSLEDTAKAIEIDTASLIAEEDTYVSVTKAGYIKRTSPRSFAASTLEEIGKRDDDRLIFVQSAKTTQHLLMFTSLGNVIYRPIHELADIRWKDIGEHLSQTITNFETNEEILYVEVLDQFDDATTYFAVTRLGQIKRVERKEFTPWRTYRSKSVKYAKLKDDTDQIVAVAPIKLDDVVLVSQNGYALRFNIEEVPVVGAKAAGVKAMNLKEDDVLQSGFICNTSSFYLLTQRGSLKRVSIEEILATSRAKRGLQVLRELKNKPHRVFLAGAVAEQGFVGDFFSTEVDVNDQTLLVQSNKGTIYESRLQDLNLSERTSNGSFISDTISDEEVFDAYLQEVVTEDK
# T1 sequence (Q59961 1-647): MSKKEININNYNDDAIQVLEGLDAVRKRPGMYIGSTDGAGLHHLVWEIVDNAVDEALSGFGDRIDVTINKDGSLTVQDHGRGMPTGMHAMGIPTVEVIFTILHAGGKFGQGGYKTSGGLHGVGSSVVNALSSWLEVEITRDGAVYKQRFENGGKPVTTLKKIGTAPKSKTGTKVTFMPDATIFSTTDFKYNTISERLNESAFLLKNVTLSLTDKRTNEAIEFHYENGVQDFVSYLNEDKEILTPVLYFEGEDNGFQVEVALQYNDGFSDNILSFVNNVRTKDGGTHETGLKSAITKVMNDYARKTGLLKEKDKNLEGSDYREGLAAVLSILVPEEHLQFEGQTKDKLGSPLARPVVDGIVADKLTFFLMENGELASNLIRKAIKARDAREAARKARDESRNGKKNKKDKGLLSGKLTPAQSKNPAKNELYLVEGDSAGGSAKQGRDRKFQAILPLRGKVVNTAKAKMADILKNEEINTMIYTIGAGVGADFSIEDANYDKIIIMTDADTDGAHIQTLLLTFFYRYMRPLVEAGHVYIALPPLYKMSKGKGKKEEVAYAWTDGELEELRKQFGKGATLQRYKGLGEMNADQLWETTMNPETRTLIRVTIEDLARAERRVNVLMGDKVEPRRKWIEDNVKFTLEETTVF
# [2] = tested on: S. aureus topoisomerase mutants; assay: MIC against defined topoisomerase mutants; type: cell-based; settings: Staphylococcus aureus
# Anaerobic Bacteria = assay: MIC against anaerobic bacteria (Table 7); type: cell-based
# [3] = Systemic exposure after topical ocular administration to humans; settings: human, in vivo, topical or ocular; following topical administration to humans
# Source text: Topical ophthalmic use of besifloxacin is not expected to elicit any systemic effects.
# [4] = Binding to proteins in human plasma; type: in vitro ADME
# Source text: The relationship between the concentration of besifloxacin in human tear fluid and the concentration required for antimicrobial activity was quantified by calculating the ratios of Cmax/MIC90 and AUC24/MIC90. For the purpose of calculating these PK/PD ratios, a PK model was used to simulate besifloxacin concentrations with a TID dosing regimen. An additional consideration in this analysis is the potential role of protein binding, which could effectively lower the concentration of unbound (free) besifloxacin. The inhibitory effect of protein binding on antibacterial efficacy has been reported for β-lactams; however, there is no general consensus about the role of protein binding on the antibacterial activity of fluoroquinolones (Bergogne-Berezin, 2002; Craig & Ebert, 1989; Drusano, 1988; Merrikin et al., 1983; Turnidge, 1999; Zeitlinger et al., 2008). […] In order to evaluate the potential theoretical maximum impact of protein binding on besifloxacin activity, Cmax/MIC90 and AUC24/MIC90 ratios were calculated based on the PK estimates for total (bound and free) and free (unbound) besifloxacin (Table 10).
# [5] = Bacteroides fragilis, Bacteroides fragilis (N = 20), read-out: MIC50
# [6] = Bacteroides fragilis, Bacteroides fragilis (N = 20), read-out: MIC90
# [7] = Clostridium perfringens (N = 21)
# [8] = Clostridium perfringens, Clostridium perfringens (N = 21)
# [9] = Cutibacterium acnes, Propionibacterium acnes (N = 21), read-out: MIC50
# [10] = Cutibacterium acnes, Propionibacterium acnes (N = 21), read-out: MIC90
# [11] = Fusobacterium spp. (N = 21), read-out: MIC50
# [12] = Prevotella spp. (N = 20), read-out: MIC50
# [13] = Prevotella spp. (N = 20), read-out: MIC90
# [14] = Propionibacterium acnes (N = 21)
structure (smiles),measurement,setting,value
CC[C@H]1OC(=O)[C@H](C)[C@@H](O[C@H]2C[C@@](C)(OC)[C@@H](O)[C@H](C)O2)[C@H](C)[C@@H](O[C@@H]2O[C@H](C)C[C@H](N(C)C)[C@H]2O)[C@](C)(O)C[C@@H](C)CN(C)[C@H](C)[C@@H](O)[C@]1(C)O [Azithromycin],"% S (susceptible isolates, CLSI)",H. influenzae; recent ocular isolates,100.0%
same,MIC Range,H. influenzae; recent ocular isolates,≦0.004-2 μg/mL
same,MIC50,H. influenzae; recent ocular isolates,0.5 µg/mL
same,MIC90,H. influenzae; recent ocular isolates,1 µg/mL
same,"% S (susceptible isolates, CLSI)",S. epidermidis; recent ocular isolates,26.7%
same,MIC50,S. epidermidis; recent ocular isolates,> 8 µg/mL
same,MIC90,S. epidermidis; recent ocular isolates,> 8 µg/mL
same,"% S (susceptible isolates, CLSI)",S. aureus; recent ocular isolates,53.3%
same,MIC50,S. aureus; recent ocular isolates,1 µg/mL
same,MIC90,S. aureus; recent ocular isolates,> 8 µg/mL
"N[C@@H]1CCCCN(c2c(F)cc3c(=O)c(C(=O)O)cn(C4CC4)c3c2Cl)C1 [Besifloxacin, (R)-(+)-(3-amino-2,3,4,5,6,7-hexahydro-1H-azepin-1-yl)-8-chloro-1-cyclopropyl-6-fluoro-1,4,-dihydro-4-oxo-3-quinolinecarboxylic acid]",CC25 Topo IV,[1],1 μM and 0.4 μg/mL
same,MIC,[2]; S. aureus Wild type,0.03 µg/mL
same,MIC,[2]; S. aureus parC S80F (or E84K),0.06 µg/mL
same,MIC,[2]; S. aureus parC S80F + gyrA S84L,0.5 µg/mL
same,% of isolates with MBC:MIC ratio 1,H. influenzae,42.5%
same,% of isolates with MBC:MIC ratio 2,H. influenzae,50.0%
same,% of isolates with MBC:MIC ratio 4,H. influenzae,7.5%
same,% of isolates with MBC:MIC ratio 8,H. influenzae,0.0%
same,% of isolates with MBC:MIC ratio ≧16,H. influenzae,0.0%
same,MIC Range,H. influenzae; recent ocular isolates,≦0.004-0.03 μg/mL
same,MIC50,H. influenzae; recent ocular isolates,0.015 µg/mL
same,MIC90,H. influenzae; recent ocular isolates,0.015 µg/mL
same,% of isolates with MBC:MIC ratio 1,S. epidermidis,73.3%
same,% of isolates with MBC:MIC ratio 2,S. epidermidis,20.0%
same,% of isolates with MBC:MIC ratio 4,S. epidermidis,6.7%
same,% of isolates with MBC:MIC ratio 8,S. epidermidis,0.0%
same,% of isolates with MBC:MIC ratio ≧16,S. epidermidis,0.0%
same,MIC Range,S. epidermidis; recent ocular isolates,0.015 to 4 µg/mL
same,MIC50,S. epidermidis; recent ocular isolates,0.03 µg/mL
same,MIC90,S. epidermidis; recent ocular isolates,4 µg/mL
same,% of isolates with MBC:MIC ratio 1,S. aureus,56.7%
same,% of isolates with MBC:MIC ratio 2,S. aureus,23.3%
same,% of isolates with MBC:MIC ratio 4,S. aureus,6.7%
same,% of isolates with MBC:MIC ratio 8,S. aureus,13.3%
same,% of isolates with MBC:MIC ratio ≧16,S. aureus,0.0%
same,MIC Range,S. aureus; recent ocular isolates,0.015 to 4 µg/mL
same,MIC50,S. aureus; recent ocular isolates,0.12 µg/mL
same,MIC90,S. aureus; recent ocular isolates,4 µg/mL
same,MIC50,Anaerobic Bacteria; [5],0.5 µg/mL
same,MIC90,Anaerobic Bacteria; [6],1 µg/mL
same,MIC Range,Anaerobic Bacteria; [7],0.12 to 0.25 µg/mL
same,MIC50,Anaerobic Bacteria; [8],0.25 µg/mL
same,MIC90,Anaerobic Bacteria; [8],0.25 µg/mL
same,MIC50,Anaerobic Bacteria; [9],0.25 µg/mL
same,MIC90,Anaerobic Bacteria; [10],0.25 µg/mL
same,MIC Range,Anaerobic Bacteria; Fusobacterium spp. (N = 21),0.12 to 8 µg/mL
same,MIC50,Anaerobic Bacteria; [11],0.25 µg/mL
same,MIC Range,Anaerobic Bacteria; Prevotella spp. (N = 20),0.06 to 16 µg/mL
same,MIC50,Anaerobic Bacteria; [12],1 µg/mL
same,MIC90,Anaerobic Bacteria; [13],4 µg/mL
same,MIC Range,Anaerobic Bacteria; [14],0.12 to 0.25 µg/mL
same,Cmax,[3],~0.4 ng/mL
same,bound to proteins in human plasma,[4],approximately 40%
COc1c(N2CCNC(C)C2)c(F)cc2c(=O)c(C(=O)O)cn(C3CC3)c12 (stereo not drawn) [Gatifloxacin],MIC Range,Anaerobic Bacteria; Bacteroides fragilis (N = 20),1 to 16 µg/mL
same,MIC50,Anaerobic Bacteria; [5],2 µg/mL
same,MIC90,Anaerobic Bacteria; [6],4 µg/mL
same,MIC Range,Anaerobic Bacteria; [7],0.5 to 1 µg/mL
same,MIC50,Anaerobic Bacteria; [8],1 µg/mL
same,MIC90,Anaerobic Bacteria; [8],1 µg/mL
same,MIC50,Anaerobic Bacteria; [9],0.25 µg/mL
same,MIC90,Anaerobic Bacteria; [10],0.5 µg/mL
same,MIC50,Anaerobic Bacteria; [11],1 µg/mL
same,MIC90,"Anaerobic Bacteria; Fusobacterium spp. (N = 21), read-out: MIC90",4 µg/mL
same,MIC50,Anaerobic Bacteria; [12],8 µg/mL
same,MIC90,Anaerobic Bacteria; [13],16 µg/mL
same,MIC Range,Anaerobic Bacteria; [14],0.25 to 0.5 µg/mL
